Results: ChEMBL document CHEMBL1201862, “PubChem BioAssay data set” (2004)
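Assay format: 96-well plates, 48-hour exposure. GI50 is the concentration that inhibits growth by half.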 Active and inactive are the calls of the source. Rule as the data show it: active = GI50 up to about 1.1 µM and inactive = higher.

Key:
Experiment in all cases: growth of human tumour cells (NCI), 48 h
[1] = tested on: 786-0
[2] = tested on: A498
[3] = tested on: A549
[4] = tested on: ACHN
[5] = tested on: BT-549
[6] = tested on: CAKI-1
[7] = tested on: CCRF-CEM
[8] = tested on: DU-145
[9] = tested on: EKVX
[10] = tested on: HCT-116
[11] = tested on: HCT-15
[12] = tested on: HOP-62
[13] = tested on: HOP-92
[14] = tested on: HT-29
[15] = tested on: Hs-578T
[16] = tested on: IGROV-1
[17] = tested on: K562
[18] = tested on: KM12
[19] = tested on: LOX IMVI
[20] = tested on: M14
[21] = tested on: MDA-MB-231
[22] = tested on: MDA-MB-435
[23] = tested on: MDA-N
[24] = tested on: MOLT-4
[25] = tested on: Malme-3M
[26] = tested on: NCI-H226
[27] = tested on: NCI-H23
[28] = tested on: NCI-H460
[29] = tested on: NCI-H522
[30] = tested on: NCI/ADR-RES
[31] = tested on: OVCAR-3
[32] = tested on: OVCAR-4
[33] = tested on: OVCAR-5
[34] = tested on: OVCAR-8
[35] = tested on: PC-3
[36] = tested on: RPMI-8226
[37] = tested on: RXF 393
[38] = tested on: SF-268
[39] = tested on: SF-295
[40] = tested on: SK-MEL-28
[41] = tested on: SK-MEL-2
[42] = tested on: SK-MEL-5
[43] = tested on: SN12C
[44] = tested on: SNB-19
[45] = tested on: SNB-75
[46] = tested on: SR
[47] = tested on: SW-620
[48] = tested on: T47D
[49] = tested on: TK-10
[50] = tested on: U-251
[51] = tested on: UACC-257
[52] = tested on: UACC-62
[53] = tested on: UO-31
[54] = tested on: COLO 205
[55] = tested on: HCC 2998
[56] = tested on: HL-60
[57] = tested on: MCF7
[58] = tested on: SF-539
[59] = tested on: SK-OV-3

In the case of Cc1ccc(C2(c3ccc(C)c(O)c3C)CCN(C)CC2)c(C)c1O, the GI50 [1] is reported as 51.2 µM (inactive), the GI50 [2] is reported as 41.7 µM (inactive) and the GI50 [3] is reported as > 100 µM (inactive). The GI50 [4] was > 100 µM (inactive), the GI50 [5] was > 100 µM (inactive) and the GI50 [6] was > 100 µM (inactive). The GI50 [7] was 60.1 µM (inactive), the GI50 [8] was > 100 µM (inactive) and the GI50 [9] was 44.4 µM (inactive). The GI50 [10] was 38.5 µM (inactive), the GI50 [11] was > 100 µM and the GI50 [12] was 51.2 µM (inactive). The GI50 [13] was > 100 µM (inactive), the GI50 [14] was 45.1 µM (inactive) and the GI50 [15] was > 100 µM (inactive). For the same compound, the GI50 [16] was > 100 µM (inactive), the GI50 [17] was 84.7 µM (inactive) and the GI50 [18] was 46.5 µM (inactive). The GI50 [19] was 34.8 µM (inactive), the GI50 [20] was 45.8 µM (inactive) and the GI50 [21] was 34.8 µM (inactive). For the same compound, the GI50 [22] was 92.9 µM (inactive), the GI50 [23] was 58.5 µM (inactive) and the GI50 [24] was > 100 µM (inactive). The GI50 [25] was 52.7 µM (inactive), the GI50 [26] was > 100 µM (inactive) and the GI50 [27] was > 100 µM (inactive). For the same compound, the GI50 [28] was 15.7 µM (inactive), the GI50 [29] was > 100 µM (inactive) and the GI50 [30] was > 100 µM (inactive). The GI50 [31] was 54 µM (inactive), the GI50 [32] was > 100 µM (inactive) and the GI50 [33] was > 100 µM (inactive). The GI50 [34] was > 100 µM (inactive), the GI50 [35] was 35 µM (inactive) and the GI50 [36] was > 100 µM (inactive). For the same compound, the GI50 [37] was 78.5 µM (inactive), the GI50 [38] was > 100 µM (inactive) and the GI50 [39] was 33.3 µM (inactive). The GI50 [40] was 30.4 µM (inactive), the GI50 [41] was 26.9 µM (inactive) and the GI50 [42] was > 100 µM (inactive). The GI50 [43] was 37.2 µM (inactive), the GI50 [44] was 62.4 µM (inactive) and the GI50 [45] was > 100 µM (inactive). The GI50 [46] was 49.8 µM (inactive), the GI50 [47] was 88.1 µM (inactive) and the GI50 [48] was 64.6 µM (inactive). The GI50 [49] was 19.9 µM (inactive), the GI50 [50] was 39.4 µM (inactive) and the GI50 [51] was 15.8 µM (inactive). For the same compound, the GI50 [52] was > 100 µM (inactive) and the GI50 [53] was > 100 µM (inactive).
In the case of Cc1cccc(NS(=O)(=O)c2ccc3c(c2)OCCOCCOCCOCCO3)c1, the GI50 [1] is reported as > 100 µM (inactive), the GI50 [2] is reported as > 100 µM (inactive) and the GI50 [3] is reported as > 100 µM (inactive). The GI50 [4] was > 100 µM (inactive), the GI50 [5] was > 100 µM (inactive) and the GI50 [6] was > 100 µM (inactive). The GI50 [7] was > 100 µM (inactive), the GI50 [54] was > 100 µM (inactive) and the GI50 [8] was > 100 µM (inactive). For the same compound, the GI50 [9] was > 100 µM (inactive), the GI50 [55] was > 100 µM (inactive) and the GI50 [10] was > 100 µM (inactive). For the same compound, the GI50 [11] was > 100 µM, the GI50 [56] was > 100 µM (inactive) and the GI50 [12] was > 100 µM (inactive). The GI50 [14] was > 100 µM (inactive), the GI50 [15] was > 100 µM (inactive) and the GI50 [16] was > 100 µM (inactive). The GI50 [17] was > 100 µM (inactive), the GI50 [18] was > 100 µM (inactive) and the GI50 [20] was > 100 µM (inactive). The GI50 [57] was > 100 µM (inactive), the GI50 [21] was > 100 µM (inactive) and the GI50 [22] was > 100 µM (inactive). For the same compound, the GI50 [23] was > 100 µM (inactive), the GI50 [24] was 63 µM (inactive) and the GI50 [25] was > 100 µM (inactive). For the same compound, the GI50 [26] was > 100 µM (inactive), the GI50 [27] was > 100 µM (inactive) and the GI50 [28] was > 100 µM (inactive). The GI50 [29] was 16.1 µM (inactive), the GI50 [34] was > 100 µM (inactive) and the GI50 [35] was > 100 µM (inactive). For the same compound, the GI50 [36] was > 100 µM (inactive), the GI50 [38] was > 100 µM (inactive) and the GI50 [39] was > 100 µM (inactive). The GI50 [58] was > 100 µM (inactive), the GI50 [40] was > 100 µM (inactive) and the GI50 [42] was > 100 µM (inactive). For the same compound, the GI50 [59] was > 100 µM (inactive), the GI50 [43] was > 100 µM (inactive) and the GI50 [44] was > 100 µM (inactive). For the same compound, the GI50 [45] was 51.5 µM (inactive), the GI50 [46] was 53 µM (inactive) and the GI50 [47] was > 100 µM (inactive). For the same compound, the GI50 [48] was 43.5 µM (inactive), the GI50 [49] was > 100 µM (inactive) and the GI50 [51] was > 100 µM (inactive). The GI50 [52] was > 100 µM (inactive) and the GI50 [53] was > 100 µM (inactive).
For COc1ccc(/C(C)=N/NC(=O)c2ccncc2)c(OC)c1, the GI50 [1] was > 10 µM (inactive), the GI50 [2] was > 10 µM (inactive) and the GI50 [3] was > 10 µM (inactive). The GI50 [5] was > 10 µM (inactive), the GI50 [6] was > 10 µM (inactive) and the GI50 [7] was > 10 µM (inactive). The GI50 [54] was > 10 µM (inactive), the GI50 [8] was > 10 µM (inactive) and the GI50 [9] was > 10 µM (inactive). For the same compound, the GI50 [55] was > 10 µM (inactive), the GI50 [11] was > 10 µM and the GI50 [56] was > 10 µM (inactive). The GI50 [12] was > 10 µM (inactive), the GI50 [13] was > 10 µM (inactive) and the GI50 [15] was > 10 µM (inactive). The GI50 [16] was > 10 µM (inactive), the GI50 [17] was > 10 µM (inactive) and the GI50 [18] was > 10 µM (inactive). The GI50 [19] was > 10 µM (inactive), the GI50 [20] was > 10 µM (inactive) and the GI50 [57] was > 10 µM (inactive). For the same compound, the GI50 [21] was > 10 µM (inactive), the GI50 [23] was > 10 µM (inactive) and the GI50 [24] was > 10 µM (inactive). The GI50 [25] was > 10 µM (inactive), the GI50 [26] was > 10 µM (inactive) and the GI50 [27] was > 10 µM (inactive). The GI50 [28] was > 10 µM (inactive), the GI50 [30] was > 10 µM (inactive) and the GI50 [32] was > 10 µM (inactive). The GI50 [34] was > 10 µM (inactive), the GI50 [36] was > 10 µM (inactive) and the GI50 [38] was > 10 µM (inactive). For the same compound, the GI50 [58] was > 10 µM (inactive), the GI50 [40] was > 10 µM (inactive) and the GI50 [42] was > 10 µM (inactive). For the same compound, the GI50 [59] was > 10 µM (inactive), the GI50 [43] was > 10 µM (inactive) and the GI50 [45] was > 10 µM (inactive). For the same compound, the GI50 [46] was > 10 µM (inactive), the GI50 [47] was > 10 µM (inactive) and the GI50 [48] was > 10 µM (inactive). For the same compound, the GI50 [49] was > 10 µM (inactive), the GI50 [50] was > 10 µM (inactive) and the GI50 [51] was > 10 µM (inactive). For the same compound, the GI50 [52] was > 10 µM (inactive) and the GI50 [53] was > 10 µM (inactive).
